Source: article PMC8586708, “SC75741, A Novel c-Abl Inhibitor, Promotes the Clearance of TDP25 Aggregates via ATG5-Dependent Autophagy Pathway” (Frontiers in Pharmacology, 2021)

Target: T1, c-Abl (Homo sapiens, UniProt P00519)
T1 construct: gene ABL1
Assay: in vitro kinase assay, dose-response
Assay type: biochemical

T1 sequence (P00519 whole entry): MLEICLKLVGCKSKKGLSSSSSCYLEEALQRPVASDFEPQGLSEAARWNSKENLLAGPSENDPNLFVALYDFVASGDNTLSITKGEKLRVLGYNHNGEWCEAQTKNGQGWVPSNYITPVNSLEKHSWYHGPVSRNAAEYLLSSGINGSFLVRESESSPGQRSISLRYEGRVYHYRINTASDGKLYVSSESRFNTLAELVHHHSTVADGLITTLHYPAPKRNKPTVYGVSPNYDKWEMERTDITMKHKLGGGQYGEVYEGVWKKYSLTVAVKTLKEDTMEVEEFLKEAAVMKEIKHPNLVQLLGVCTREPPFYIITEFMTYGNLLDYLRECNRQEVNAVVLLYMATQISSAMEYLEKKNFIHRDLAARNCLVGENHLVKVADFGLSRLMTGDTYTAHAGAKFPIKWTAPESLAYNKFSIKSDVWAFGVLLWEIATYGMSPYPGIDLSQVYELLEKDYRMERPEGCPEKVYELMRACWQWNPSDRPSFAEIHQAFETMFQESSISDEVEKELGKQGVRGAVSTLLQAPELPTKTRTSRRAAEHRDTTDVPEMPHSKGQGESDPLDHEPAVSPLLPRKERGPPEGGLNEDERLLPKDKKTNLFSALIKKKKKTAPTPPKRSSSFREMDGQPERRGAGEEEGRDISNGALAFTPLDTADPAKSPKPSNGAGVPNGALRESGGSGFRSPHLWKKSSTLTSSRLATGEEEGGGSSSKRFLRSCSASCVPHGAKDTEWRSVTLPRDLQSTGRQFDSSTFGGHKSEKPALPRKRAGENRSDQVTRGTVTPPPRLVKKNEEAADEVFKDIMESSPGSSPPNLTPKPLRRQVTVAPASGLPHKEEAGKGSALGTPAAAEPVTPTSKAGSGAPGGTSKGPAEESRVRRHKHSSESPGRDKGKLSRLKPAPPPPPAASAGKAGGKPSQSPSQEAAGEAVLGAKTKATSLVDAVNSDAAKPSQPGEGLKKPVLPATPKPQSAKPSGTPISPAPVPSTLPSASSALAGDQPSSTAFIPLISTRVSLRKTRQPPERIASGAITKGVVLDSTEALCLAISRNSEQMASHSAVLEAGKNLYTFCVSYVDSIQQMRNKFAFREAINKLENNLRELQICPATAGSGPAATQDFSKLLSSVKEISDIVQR

IC50: 263 nM
SMILES: O=C(c1ccccc1)c1ccc2nc(NC(=O)c3csc(C4CCN(c5ncnc6ccsc56)CC4)n3)[nH]c2c1 [SC75741]
